In experiment [1] the target is Glycogen synthase kinase-3 alpha (Homo sapiens, UniProt P49840). Kind of experiment: TR-FRET Assay. In outline:
(§1)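 Kinase activity, measured after a 30-minute compound preincubation, was stopped with EDTA and quantified by TR-FRET using a Tb-labelled pSer641 antibody paired with streptavidin-d2.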
Background: In TR-FRET formats the signal depends on donor and acceptor labels being close together.

Experiment [2] deals with Glycogen synthase kinase-3 beta (Homo sapiens, UniProt P49841). Kind of experiment: TR-FRET Assay. In outline:
as §1

The source of these data is BindingDB's records for patent US20250313563 (The Broad Institute, 2025).

Molecules are shown by their SMILES. Where “and” joins values, the source holds several entries; their conditions need not be identical. Equal values may be shown once.

Sequence of Glycogen synthase kinase-3 alpha (P49840 whole entry): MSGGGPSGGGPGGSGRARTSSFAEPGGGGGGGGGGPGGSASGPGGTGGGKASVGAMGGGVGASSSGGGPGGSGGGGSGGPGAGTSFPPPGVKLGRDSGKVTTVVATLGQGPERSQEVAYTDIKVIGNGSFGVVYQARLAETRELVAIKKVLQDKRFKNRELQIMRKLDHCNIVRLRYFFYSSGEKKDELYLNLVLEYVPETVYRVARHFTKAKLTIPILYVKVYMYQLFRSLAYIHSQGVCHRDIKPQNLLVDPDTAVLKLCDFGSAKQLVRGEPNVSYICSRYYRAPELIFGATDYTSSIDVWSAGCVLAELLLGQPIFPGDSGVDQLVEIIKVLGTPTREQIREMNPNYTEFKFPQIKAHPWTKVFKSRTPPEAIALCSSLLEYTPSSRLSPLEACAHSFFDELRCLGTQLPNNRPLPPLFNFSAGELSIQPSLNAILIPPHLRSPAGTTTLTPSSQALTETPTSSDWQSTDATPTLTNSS
Sequence of Glycogen synthase kinase-3 beta (P49841 whole entry): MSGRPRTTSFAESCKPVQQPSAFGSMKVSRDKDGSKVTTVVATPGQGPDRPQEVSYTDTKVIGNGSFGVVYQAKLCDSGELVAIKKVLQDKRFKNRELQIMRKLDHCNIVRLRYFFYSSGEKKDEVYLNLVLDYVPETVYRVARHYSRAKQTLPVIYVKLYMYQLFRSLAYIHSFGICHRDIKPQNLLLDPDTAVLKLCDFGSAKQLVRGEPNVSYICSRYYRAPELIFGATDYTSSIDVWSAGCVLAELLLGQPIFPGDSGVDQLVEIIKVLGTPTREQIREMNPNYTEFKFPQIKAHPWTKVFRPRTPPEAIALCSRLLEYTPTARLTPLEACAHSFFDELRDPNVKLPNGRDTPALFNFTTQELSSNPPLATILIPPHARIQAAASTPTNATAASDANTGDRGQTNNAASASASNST

Take `CC[C@@]1(c2cccc(N(C)c3cnccn3)c2)C2=CN=NC2NC2=C1C(=O)CC(C)(C)C2` (some centres not stated) [US20250313563, Compound 915340]: the IC50 (as a rule, the concentration that inhibits the measured activity by half) fell in the range of 100 to 1000 nM in experiment [1] and 1000 to 5000 nM in experiment [2].
As for `CC[C@]1(c2cccc(N(C)c3cncnc3)c2)C2=CN=NC2NC2=C1C(=O)CC(C)(C)C2` (some centres not stated) [US20250313563, Compound 915400], the IC50 in experiment [1] and in experiment [2] was < 100 nM in each case.
For `CC[C@@]1(c2cccc(N(C)c3cncnc3)c2)C2=CN=NC2NC2=C1C(=O)NC(C)(C)C2` (some centres not stated) [US20250313563, Compound 915401], the IC50 in experiment [1] fell in the range of 100 to 1000 nM; in experiment [2] it was 1000 to 5000 nM.
As to `CC[C@@]1(c2cccc(N(C)c3ccnnc3)c2)C2=CN=NC2NC2=C1C(=O)CC(C)(C)C2` (some centres not stated) [US20250313563, Compound 915630], the IC50 in experiment [1] lay in the range of 100 to 1000 nM; in experiment [2], 1000 to 5000 nM.
In the same order, the values of `CC[C@@]1(c2cccc(N3CCCc4ncccc43)c2)C2=CN=NC2NC2=C1C(=O)CC(C)(C)C2` (some centres not stated) [US20250313563, Compound 917079] are 100 to 1000 nM and 1000 to 5000 nM.
In the case of `CC1(C)CC(=O)C2=C(C1)NC1=C(CN=N1)C21CC(c2ccccc2)C1` (configuration not stated) [US20250313563, Compound 917081], the IC50 in experiment [1] and in experiment [2] was < 100 nM in each case.
Turning to `CC[C@]1(c2cccc(N(c3cccnc3)C(C)C)c2)C2=CN=NC2NC2=C1C(=O)CC(C)(C)C2` (some centres not stated) [US20250313563, Compound 917086], the IC50 was < 100 nM and 100 to 1000 nM in experiment [1]; < 100 nM and 1000 to 5000 nM in experiment [2].
In the case of `CC[C@@]1(c2cccc(N(c3cccnc3)C(C)C)c2)C2=CN=NC2NC2=C1C(=O)CC(C)(C)C2` (some centres not stated) [US20250313563, Compound 917087], the IC50 in experiment [1] lay within 100 to 1000 nM; in experiment [2] it was 1000 to 5000 nM.
In the same order, the values of `CCN(c1cccnc1)c1cccc([C@@]2(CC)C3=CN=NC3NC3=C2C(=O)CC(C)(C)C3)c1` (some centres not stated) [US20250313563, Compound 917088] are 100 to 1000 nM and 1000 to 5000 nM.
For `CCN(c1cccnc1)c1cccc([C@]2(CC)C3=CN=NC3NC3=C2C(=O)CC(C)(C)C3)c1` (some centres not stated) [US20250313563, Compound 917089], the values for the IC50 in experiment [1] and in experiment [2] were 100 to 1000 nM and 1000 to 5000 nM, respectively.
For `CC1(C)CC(=O)C2=C(C1)NC1=C(CN=N1)[C@]21COC2(CCC2)C1` [US20250313563, Compound 917128], the IC50 in experiment [1] and in experiment [2] was 100 to 1000 nM in each case.
In the case of `CC1(C)CC(=O)C2=C(C1)NC1=C(CN=N1)[C@@]21COC2(CCC2)C1` [US20250313563, Compound 917129], the IC50 in experiment [1] and in experiment [2] was 100 to 1000 nM throughout.
Consider `CCC1(c2cccc(N(C)C(=O)c3ccn(C)n3)c2)C2=CN=NC2NC2=C1C(=O)CC(C)(C)C2` (configuration not stated) [US20250313563, Compound 917130], for which the concentration for half-maximal inhibition (IC50) in experiment [1] is < 100 nM; in experiment [2], 100 to 1000 nM.
As for `CCCS(=O)(=O)c1cccc(C2(CC)C3=CN=NC3NC3=C2C(=O)CC(C)(C)C3)c1` (configuration not stated) [US20250313563, Compound 917131], the IC50 in experiment [1] and in experiment [2] was < 100 nM in each case.
As for `CCC1(c2cccc(-c3cc(C)ncc3F)c2)C2=CN=NC2NC2=C1C(=O)CC(C)(C)C2` (configuration not stated) [US20250313563, Compound 917132], the IC50 in experiment [1] and in experiment [2] was < 100 nM each time.
For `CC1(C)CC2=C(C(=O)C1F)[C@]1(CC[C@H](C(F)(F)F)CC1)C1=C(N=NC1)N2` (some centres not stated) [US20250313563, Compound 917133], the IC50 in experiment [1] and in experiment [2] was < 100 nM throughout.
For `CC1(C)CC2=C(C(=O)C1F)[C@]1(CC[C@@H](C(F)(F)F)CC1)C1=CN=NC1N2` (some centres not stated) [US20250313563, Compound 917134], the values for the IC50 in experiment [1] and in experiment [2] were < 100 nM and 100 to 1000 nM, respectively.
The corresponding values for `CC1(C)CC(=O)C2=C(NC3=C(CN=N3)[C@]23CC[C@@H](C(F)(F)F)CC3)C1F` (some centres not stated) [US20250313563, Compound 917135] are < 100 nM and 100 to 1000 nM.
In the same order, the values of `CC1(C)CC(=O)C2=C(NC3=C(CN=N3)[C@]23CC[C@H](C(F)(F)F)CC3)C1F` (some centres not stated) [US20250313563, Compound 917136] are < 100 nM and 100 to 1000 nM.
For `CC1(C)CC(=O)C2=C(C1)NC1N=NC=C1C21CCCN(S(=O)(=O)C2CC2)CC1` (configuration not stated) [US20250313563, Compound 917137], the IC50 in experiment [1] and in experiment [2] was < 100 nM throughout.
`Cn1ccc(S(=O)(=O)N2CCCC3(CC2)C2=CN=NC2NC2=C3C(=O)CC(C)(C)C2)n1` (configuration not stated) [US20250313563, Compound 917138]: the IC50 in experiment [1] and in experiment [2] was < 100 nM in each case.
Take `CC1(C)CC(=O)C2=C(C1)NC1=C(CN=N1)C21CN(S(=O)(=O)C2CCCC2)C1` [US20250313563, Compound 917139]: the IC50 was < 100 nM and 100 to 1000 nM in experiment [1]; < 100 nM and 100 to 1000 nM in experiment [2].
On to `COc1cccc(S(=O)(=O)N2CCCC3(CC2)C2=CN=NC2NC2=C3C(=O)CC(C)(C)C2)c1` (configuration not stated) [US20250313563, Compound 917140], for which the IC50 in experiment [1] is < 100 nM; in experiment [2], 100 to 1000 nM.
In the same order, the values of `COc1ccc(S(=O)(=O)N2CCCC3(CC2)C2=CN=NC2NC2=C3C(=O)CC(C)(C)C2)cc1` (configuration not stated) [US20250313563, Compound 917141] are < 100 nM and 100 to 1000 nM.
In the same order, the values of `COc1ccccc1S(=O)(=O)N1CCCC2(CC1)C1=CN=NC1NC1=C2C(=O)CC(C)(C)C1` (configuration not stated) [US20250313563, Compound 917142] are < 100 nM and 100 to 1000 nM.
On to `COc1ccc(S(=O)(=O)N2CCC3(CC2)C2=C(N=NC2)NC2=C3C(=O)CC(C)(C)C2)cc1` [US20250313563, Compound 917143], for which the IC50 in experiment [1] and in experiment [2] was < 100 nM throughout.
Take `CC1(C)CC(=O)C2=C(C1)NC1=C(CN=N1)C21CN(S(=O)(=O)c2ccc(F)cc2)C1` [US20250313563, Compound 917144]: the IC50 in experiment [1] and in experiment [2] was < 100 nM throughout.
With `CC1(C)CC(=O)C2=C(C1)NC1N=NC=C1C21CCCN(c2ccncn2)CC1` (configuration not stated) [US20250313563, Compound 917145], the IC50 in experiment [1] and in experiment [2] was 1000 to 5000 nM in each case.
For `CCC1(c2cccc(N(C)c3ccnc(F)c3)c2)C2=CN=NC2NC2=C1C(=O)CC(C)(C)C2` (configuration not stated) [US20250313563, Compound 917146], the IC50 in experiment [1] and in experiment [2] was < 100 nM each time.
Regarding `CCc1cc(N(C)c2cccc(C3(CC)C4=CN=NC4NC4=C3C(=O)CC(C)(C)C4)c2)ccn1` (configuration not stated) [US20250313563, Compound 917147], the IC50 in experiment [1] is < 100 nM; in experiment [2], 100 to 1000 nM.
The corresponding values for `CCC1(c2cccc(N3CCc4ccncc4C3)c2)C2=CN=NC2NC2=C1C(=O)CC(C)(C)C2` (configuration not stated) [US20250313563, Compound 917148] are 1000 to 5000 nM and > 5000 nM.
In the case of `CCC1(c2cccc(N(C)c3ccnc(C)c3)c2)C2=CN=NC2NC2=C1C(=O)CC(C)(C)C2` (configuration not stated) [US20250313563, Compound 917149], the values for the IC50 in experiment [1] and in experiment [2] were 100 to 1000 nM and 1000 to 5000 nM, respectively.
The corresponding values for `CCC1(c2cccc(N(C)c3ccc(F)nc3)c2)C2=CN=NC2NC2=C1C(=O)CC(C)(C)C2` (configuration not stated) [US20250313563, Compound 917152] are < 100 nM and 100 to 1000 nM.
In the same order, the values of `CC[C@]1(c2cccc(C(F)(F)F)c2)C2=C(N=NC2)NC2=C1C(=O)NC2` [US20250313563, Compound 917157] are > 5000 nM and > 5000 nM.
Consider `CC[C@@]1(c2cccc(C(F)(F)F)c2)C2=C(N=NC2)NC2=C1C(=O)NC2` [US20250313563, Compound 917158], for which the concentration for half-maximal inhibition (IC50) lay in the range of 100 to 1000 nM in experiment [1] and 1000 to 5000 nM in experiment [2].
Turning to `CCC1(c2cccc(C(F)(F)F)c2)C2=C(N=NC2)NC2=C1C(=O)N(Cc1ccccc1)C2` (configuration not stated) [US20250313563, Compound 917159], the figures for the IC50 in experiment [1] and in experiment [2] were < 100 nM and 100 to 1000 nM, respectively.
Consider `C[C@@H]1C[C@@]2(CCN1S(=O)(=O)c1ccn(C)n1)C1=C(N=NC1)NC1=C2C(=O)CC(C)(C)C1` [US20250313563, Compound 917160], for which the IC50 in experiment [1] and in experiment [2] was 100 to 1000 nM throughout.
Take `C[C@@H]1C[C@]2(CCN1S(=O)(=O)c1ccn(C)n1)C1=C(N=NC1)NC1=C2C(=O)CC(C)(C)C1` [US20250313563, Compound 917161]: the IC50 in experiment [1] and in experiment [2] was < 100 nM each time.
`CCC1(c2cccc(C(F)(F)F)c2)C2=C(N=NC2)NC2=C1C(=O)N(Cc1ccccc1)C2C` (configuration not stated) [US20250313563, Compound 917162]: the IC50 is < 100 nM in experiment [1] and 100 to 1000 nM in experiment [2].
As for `CC[C@]1(c2cccc(N3CCCC[C@H]3C)c2)C2=CN=NC2NC2=C1C(=O)CC(C)(C)C2` (some centres not stated) [US20250313563, Compound 917209], the IC50 in experiment [1] is < 100 nM; in experiment [2], 100 to 1000 nM.
Turning to `CC[C@@]1(c2cccc(N3CCCC[C@H]3C)c2)C2=CN=NC2NC2=C1C(=O)CC(C)(C)C2` (some centres not stated) [US20250313563, Compound 917210], the IC50 in experiment [1] and in experiment [2] was > 5000 nM throughout.
With `CCC1(c2cccc(C(F)(F)F)c2)C2=CN=NC2NC2=C1C(=O)N(c1ccccc1)CC2` (configuration not stated) [US20250313563, Compound 917211], the figures for the IC50 in experiment [1] and in experiment [2] were < 100 nM and 100 to 1000 nM, respectively.
Consider `CCC1(c2cccc(Oc3cncnc3)c2)C2=CN=NC2NC2=C1C(=O)CC(C)(C)C2` (configuration not stated) [US20250313563, Compound 917212], for which the IC50 in experiment [1] was < 100 nM; in experiment [2], 100 to 1000 nM.
For the molecule `CC1(C)CC(=O)C2=C(C1)NC1=C(CN=N1)C21Cc2ccccc21` (configuration not stated) [US20250313563, Compound 917226], the IC50 in experiment [1] and in experiment [2] was 100 to 1000 nM throughout.
Turning to `CC1(C)CC(=O)C2=C(C1)NC1=C(CN=N1)C21COC2(CN(C(=O)c3ccccc3)C2)C1` (configuration not stated) [US20250313563, Compound 917231], the IC50 in experiment [1] and in experiment [2] was < 100 nM throughout.
For the molecule `CC1(C)CC(=O)C2=C(C1)NC1=C(CN=N1)C21COC2(CN(C(=O)C3CCCC3)C2)C1` (configuration not stated) [US20250313563, Compound 917232], the half-maximal inhibitory concentration (IC50) in experiment [1] and in experiment [2] was < 100 nM each time.
